Measurements from patent US9961897B2, “Fungicidal pyrazoles” (E. I. DU PONT DE NEMOURS AND COMPANY, priority 2013, dated 2018).
Marks after values point to notes of the source that are not given here.

What was measured:
Type in all cases: in vivo
[1] = tested on: Puccinia recondita f. sp. tritici; assay: Test A: wheat leaf rust, preventive spray on wheat seedlings, visual disease rating; details: 100 = 100% disease control, 0 = no control
Description: (§1) General protocol for preparing test suspensions for Tests A-E: the test compounds were first dissolved in acetone in an amount equal to 3% of the final volume and then suspended at the desired concentration (in ppm) in acetone and purified water (50/50 mix by volume) containing 250 ppm of the surfactant Trem® 014 (polyhydric alcohol esters). The resulting test suspensions were then used in Tests A-E. Spraying a 200 ppm test suspension to the point of run-off on the test plants was the equivalent of a rate of 800 g/ha.
The test suspension was sprayed to the point of run-off on wheat seedlings. The following day the seedlings were inoculated with a spore suspension of Puccinia recondita f. sp. tritici (the causal agent of wheat leaf rust) and incubated in a saturated atmosphere at 20° C. for 24 h, and then moved to a growth chamber at 20° C. for 6 days, after which time visual disease ratings were made.
(§2) Results for Tests A-E are given in Table A. In the Table, a rating of 100 indicates 100% disease control and a rating of 0 indicates no disease control (relative to the controls). All results are for compounds tested at 200 ppm except where followed by an asterisk “*” which indicates the compound was tested at 250 ppm. A dash (-) indicates no test results.

[2] = tested on: Blumeria graminis f. sp. tritici; assay: Test D: wheat powdery mildew, preventive spray on wheat seedlings, visual disease rating; details: 100 = 100% disease control, 0 = no control
Description: as §1
The test suspension was sprayed to the point of run-off on wheat seedlings. The following day the seedlings were inoculated with a spore dust of Blumeria graminis f. sp. tritici, also known as Erysiphe graminis f. sp. tritici (the causal agent of wheat powdery mildew) and incubated in a growth chamber at 20° C. for 8 days, after which time visual disease ratings were made.
as §2

Septoria tritici = assay: Test B: wheat leaf blotch, preventive spray on wheat seedlings, visual disease rating; details: 100 = 100% disease control, 0 = no control
Description: as §1
(§3) The test suspension was sprayed to the point of run-off on wheat seedlings. The following day the seedlings were inoculated with a spore suspension of Septoria tritici (the causal agent of wheat leaf blotch) and incubated in a saturated atmosphere at 24° C. for 48 h, and then moved to a growth chamber at 20° C. for 19 days, after which time visual disease ratings were made.
as §2

Botrytis cinerea = assay: Test C: tomato Botrytis, preventive spray on tomato seedlings, visual disease rating; details: 100 = 100% disease control, 0 = no control
Description: as §1
as §3, with “tomato” for “wheat”, “Botrytis cinerea” for “Septoria tritici”, “tomato Botrytis)” for “wheat leaf blotch)”, “20°” for “24°”, “24°” for “20°”, “3” for “19”
as §2

Septoria nodorum = assay: Test E: Septoria glume blotch, preventive spray on wheat seedlings, visual disease rating; details: 200 ppm test suspension sprayed to run-off on wheat seedlings; 100 = 100% disease control, 0 = no control
Description: as §1
as §3, with “nodorum” for “tritici”, “Septoria glume” for “wheat leaf”, “9” for “19”
as §2

[3] = 200 ppm test suspension sprayed to run-off on wheat seedlings
[4] = 200 ppm test suspension sprayed to run-off on tomato seedlings
[5] = 250 ppm (asterisk) test suspension sprayed to run-off on wheat seedlings
[6] = 250 ppm (asterisk) test suspension sprayed to run-off on tomato seedlings

| Compound | Test A disease control rating [1, 3] | Test D disease control rating [2, 3] | Test B disease control rating (Septoria tritici; [3]) | Test C disease control rating (Botrytis cinerea; [4]) | Test E disease control rating (Septoria nodorum) | Test A disease control rating [1, 5] | Test D disease control rating [2, 5] | Test B disease control rating (Septoria tritici; [5]) | Test C disease control rating (Botrytis cinerea; [6]) |
| --- | --- | --- | --- | --- | --- | --- | --- | --- | --- |
| CO/N=C/c1cc(F)c(-c2c(C(O)c3ccc(F)cc3Cl)c(C)nn2C)c(F)c1 (stereo not drawn) [Compound 14] | 100% | 95% | 99% | 39% | – | – | – | – | – |
| Cc1nn(C)c(-c2c(F)cc(C3CO3)cc2F)c1C(O)c1ccc(F)cc1Cl (stereo not drawn) [Compound 8] | 90% | 27% | 95% | 30% | 0% | – | – | – | – |
| Cc1nn(C)c(-c2c(F)cc(/C=C/C3CC3)cc2F)c1C(O)c1ccc(F)cc1Cl (stereo not drawn) [Compound 1] | 68% | 98% | – | 0% | 0% | – | – | – | – |
| Cc1nn(C)c(-c2c(F)cc(OCC3CCCO3)cc2F)c1C(O)c1ccc(F)cc1Cl (stereo not drawn) [Compound 15] | – | – | – | – | – | 98* % | 95* % | 100* % | 98* % |
| Cc1nn(C)c(-c2c(F)cc(-n3cccn3)cc2F)c1C(O)c1ccc(F)cc1Cl (stereo not drawn) [Compound 3, α-(2-chloro-4-fluorophenyl)-5-[2,6-difluoro-4-(1H-pyrazol-1-yl)phenyl]-1,3-dimethyl-1H-pyrazole-4-methanol] | 68% | 81% | – | 59% | 98% | – | – | – | – |
| Cc1nn(C)c(-c2c(F)cc(/C=N/O)cc2F)c1C(O)c1ccc(F)cc1Cl (stereo not drawn) [Compound 11] | 86% | 69% | 98% | 15% | 0% | – | – | – | – |
| CCCCOc1cc(F)c(-c2c(C(O)c3ccc(F)cc3Cl)c(C)nn2C)c(F)c1 (stereo not drawn) [Compound 13] | 0% | 98% | 98% | 0% | – | – | – | – | – |
| C#CCOc1cc(F)c(-c2c(C(O)c3ccc(F)cc3Cl)c(C)nn2C)c(F)c1 (stereo not drawn) [Compound 5] | 100% | 99% | 99% | 98% | – | – | – | – | – |
| Cc1nn(C)c(-c2c(F)cc(C#CC3CC3)cc2F)c1C(O)c1ccc(F)cc1Cl (stereo not drawn) [Compound 2] | 95% | 98% | – | 98% | 100% | – | – | – | – |
| Cc1nn(C)c(-c2c(F)cc(-n3ccc(C(F)(F)F)n3)cc2F)c1C(O)c1ccc(F)cc1Cl (stereo not drawn) [Compound 4] | 0% | 0% | – | 0% | 0% | – | – | – | – |
| Cc1nn(C)c(-c2c(F)cc(OCC3CC3)cc2F)c1C(O)c1ccc(F)cc1Cl (stereo not drawn) [Compound 10, α-(2-chloro-4-fluorophenyl)-5-[4-(cyclopropylmethoxy)-2,6-difluorophenyl]-1,3-dimethyl-1H-pyrazole-4-methanol] | 99% | 94% | 96% | 12% | 100% | – | – | – | – |
| C=CCOc1cc(F)c(-c2c(C(O)c3ccc(F)cc3Cl)c(C)nn2C)c(F)c1 (stereo not drawn) [Compound 6] | 99% | 95% | 99% | 99% | – | – | – | – | – |
| Cc1nn(C)c(-c2c(F)cc(OCC3OCCO3)cc2F)c1C(O)c1ccc(F)cc1Cl (stereo not drawn) [Compound 19] | – | – | – | – | – | 100* % | 95* % | 99* % | 100* % |
| Cc1nn(C)c(-c2c(F)cc(OCCC(C)C)cc2F)c1C(O)c1ccc(F)cc1Cl (stereo not drawn) [Compound 9, α-(2-chloro-4-fluorophenyl)-5-[2,6-difluoro-4-(3-methylbutoxy)phenyl]-1,3-dimethyl-1H-pyrazole-4-methanol] | 9% | – | 87% | 0% | 0% | – | 21* % | – | – |
